{"source": "patent US5458814A", "about": "“Substituted naphthopyrans” (Transitions Optical, Inc., priority 1993, dated 1995)", "test": "Photochromic response on optical bench (lambda max, sensitivity, saturation optical density, bleach rate) of naphthopyrans imbibed into test square polymerizates", "format": "physicochemical", "settings": "for BLEACH RATE T1/2: time for absorbance to reach one half the highest absorbance after removal of activating light, 75° F., 23.9° C.; for Δ OD @ SATURATION: UV exposure continued for 20 minutes; for Δ OD @ SATURATION / Δ OD/Min SENSITIVITY: diethylene glycol bis(allyl carbonate), 75° F. (23.9° C.); for Δ OD/Min SENSITIVITY: first five (5) seconds of UV exposure, expressed on a per minute basis; for LAMBDA MAX of the activated (colored) form in the visible spectrum: imbibed into diethylene glycol bis(allyl carbonate) composition", "method": "Testing was done with selected photochromic naphthopyrans incorporated into test square polymerizates by one of two different imbibition processes. The test square polymerizates were prepared from a diethylene glycol bis(allyl carbonate) composition and measured 1/8 inch (0.3 centimeters)×2 inches (5.1 centimeters)×2 inches (5.1 centimeters). In one of the imbibition processes, the photochromic naphthopyran was dissolved to form a 10 weight percent solution in a 1:9 mixture of ethyl cellulose:toluene. The solution was then spin coated onto the test squares and allowed to dry. […] After cooling, the ethyl cellulose/toluene resin film was removed from the test squares by washing with acetone.\nAlternatively, the test squares were imbibed by the following procedure. Each naphthopyran was dissolved into toluene to form a four (4) weight percent solution of the compound. A piece of No. 4 Whatman filter paper was saturated with the naphthopyran toluene solution and allowed to air dry. The dried filter paper was placed on one side of the test square. A piece of untreated filter paper was placed on the other side of the polymeric test square and the resulting sandwich was placed between two flat aluminum metal plates. […] After cooling, the test squares were washed with acetone.\nThe photochromic squares were tested for photochromic response rates on an optical bench. […] The bench was fitted with a 150 watt Xenon arc lamp, a remote controlled shutter, a copper sulfate bath acting as a heat sink for the arc lamp, a Schott WG-320 nm cut-off filter which removes short wavelength radiation; neutral density filter(s) and a sample holder in which the square to be tested was inserted. A collimated beam of light from a tungsten lamp was passed through the square at a small angle normal to the square. After passing through the square, the light from the tungsten lamp was directed through a photopic filter attached to a detector. The photopic filter passes wavelengths such that the detector mimics the response of the human eye. The output signals from the detector(s) were processed by a radiometer.\nChange in optical density (ΔOD) was determined by inserting an imbibed square in the bleached state into the sample holder, adjusting the transmittance scale to 100%, opening the shutter from the Xenon lamp to provide ultraviolet radiation to change the imbibed square from the bleached state to an activated (i.e., darkened) state, measuring the transmittance in the activated state, and calculating the change in optical density according to the formula ΔOD=log(100% Ta) where % Ta is the percent transmittance in the activated state and the logarithm is to the base 10.\nThe ΔOD/Min, which represents the sensitivity of the photochromic compound's response to UV light, was measured over the first five (5) seconds of UV exposure, then expressed on a per minute basis. The saturation optical density (OD) was taken under identical conditions as the ΔOD/Min, except UV exposure was continued for 20 minutes for the examples in Table 1. The lambda max reported in Table 1 is the wavelength in the visible spectrum at which the maximum absorption of the activated (colored) form of the photochromic compound in a diethylene glycol bis(allyl carbonate) composition occurs.", "data": [{"smiles": "C1=CC(c2ccccc2)(c2ccccc2)Oc2c1ccc1ccccc21", "note": "[Comparative Example 1, 2,2-diphenyl-[2H]-naphtho[1,2-b]pyran, reference compound]", "values": [{"measurement": "BLEACH RATE T1/2", "setting": "Table 2 comparison", "result": "> 30", "unit": "min"}]}, {"smiles": "Cc1cc2ccccc2c2c1C=CC(c1ccccc1)(c1ccccc1)O2", "note": "[Comparative Example 2, 2,2-diphenyl-5-methyl-[2H]-naphtho[1,2-b]pyran, reference compound]", "values": [{"measurement": "BLEACH RATE T1/2", "setting": "Table 2 comparison", "result": 10.7, "unit": "min"}]}, {"smiles": "C1=CC2(Oc3c1ccc1ccccc31)C1CC3CC(C1)CC2C3", "note": "(centres unmarked) [Comparative Example 3, 2,2-spiroadamantylene-[2H]-naphtho[1,2-b]pyran, reference compound]", "values": [{"measurement": "BLEACH RATE T1/2", "setting": "Table 2 comparison", "result": 3.75, "unit": "min"}]}, {"smiles": "COc1ccc(C2(C(C)(C)C)C=Cc3ccc4ccccc4c3O2)cc1", "note": "(centres unmarked) [Comparative Example 4, 2-(4-methoxyphenyl)-2-t-butyl-[2H]naphtho[1,2-b]pyran, reference compound]", "values": [{"measurement": "BLEACH RATE T1/2", "setting": "Table 2 comparison", "result": "> 30", "unit": "min"}]}, {"smiles": "COC(=O)c1c2c(c3ccccc3c1O)OC(c1ccc(OC)cc1)(c1ccc(OC)cc1)C=C2", "note": "[Example 1, 2,2-bis(4-methoxyphenyl)-5-methoxycarbonyl-6-hydroxy-[2H]-naphtho[1,2-b]pyran]", "values": [{"measurement": "BLEACH RATE T1/2", "setting": "Table 1", "result": 3.92, "unit": "min"}, {"measurement": "Δ OD @ SATURATION", "result": 0.18}, {"measurement": "Δ OD/Min SENSITIVITY", "result": "0.47 Δ OD/Min"}, {"measurement": "LAMBDA MAX of the activated (colored) form in the visible spectrum", "result": 497, "unit": "nm"}]}, {"smiles": "COC(=O)c1c2c(c3ccccc3c1OC)OC(c1ccc(OC)cc1)(c1ccc(OC)cc1)C=C2", "note": "[Example 2, 2,2-bis(4-methoxyphenyl)-5-methoxycarbonyl-6-methoxy-[2H]-naphtho[1,2-b]pyran]", "values": [{"measurement": "BLEACH RATE T1/2", "setting": "Table 1", "result": 5.08, "unit": "min"}, {"measurement": "Δ OD @ SATURATION", "result": 0.48}, {"measurement": "Δ OD/Min SENSITIVITY", "result": "0.81 Δ OD/Min"}, {"measurement": "LAMBDA MAX of the activated (colored) form in the visible spectrum", "result": 510, "unit": "nm"}]}, {"smiles": "CCOC(=O)COc1c(C(=O)OC)c2c(c3ccccc13)OC(c1ccc(OC)cc1)(c1ccc(OC)cc1)C=C2", "note": "[Example 3, 2,2-bis(4-methoxyphenyl)-5-methoxycarbonyl-6-ethoxycarbonylmethoxy-[2H]-naphtho[1,2-b]pyran]", "values": [{"measurement": "BLEACH RATE T1/2", "setting": "Table 1", "result": 3.52, "unit": "min"}, {"measurement": "Δ OD @ SATURATION", "result": 0.44}, {"measurement": "Δ OD/Min SENSITIVITY", "result": "0.79 Δ OD/Min"}, {"measurement": "LAMBDA MAX of the activated (colored) form in the visible spectrum", "result": 508, "unit": "nm"}]}, {"smiles": "COC(=O)c1c2c(c3ccccc3c1OC(C)=O)OC(c1ccc(OC)cc1)(C(C)(C)C)C=C2", "note": "(centres unmarked) [Example 4, 2-(4-methoxyphenyl)-2-t-butyl-5-methoxycarbonyl-6-acetoxy-[2H]naphtho[1,2-b]pyran]", "values": [{"measurement": "BLEACH RATE T1/2", "setting": "Table 2 comparison", "result": 7.22, "unit": "min"}]}, {"smiles": "COC(=O)c1c2c(c3ccccc3c1OCC#N)OC(c1ccccc1)(c1ccc(OC)cc1)C=C2", "note": "(centres unmarked) [Example 5, 2-(4-methoxyphenyl)-2-phenyl-5-methoxycarbonyl-6-(cyanomethoxy)-[2H]-naphtho [1,2-b]pyran]", "values": [{"measurement": "LAMBDA MAX of the activated (colored) form in the visible spectrum", "result": 494, "unit": "nm"}]}, {"smiles": "COC(=O)Oc1c(C(=O)OC)c2c(c3ccccc13)OC(c1ccc(C)cc1)(c1ccc(C)cc1)C=C2", "note": "[Example 6, 2,2-bis(4-methylphenyl)-5-methoxycarbonyl-6-(methoxycarbonyloxy)-[2H]-naphtho[1,2-b]pyran]", "values": [{"measurement": "BLEACH RATE T1/2", "setting": "Table 1", "result": 1.67, "unit": "min"}, {"measurement": "Δ OD @ SATURATION", "result": 0.17}, {"measurement": "Δ OD/Min SENSITIVITY", "result": "0.32 Δ OD/Min"}, {"measurement": "LAMBDA MAX of the activated (colored) form in the visible spectrum", "result": 482, "unit": "nm"}]}, {"smiles": "COC(=O)c1c2c(c3ccccc3c1OC(C)=O)OC(c1ccccc1)(c1ccccc1)C=C2", "note": "[Example 7, 2,2-diphenyl-5-methoxycarbonyl-6-acetoxy-[2H]-naphtho[1,2-b]pyran]", "values": [{"measurement": "BLEACH RATE T1/2", "setting": "Table 2 comparison", "result": 3.67, "unit": "min"}]}, {"smiles": "COC(=O)c1c2c(c3ccccc3c1C)OC(c1ccc(OC)cc1)(c1ccc(OC)cc1)C=C2", "note": "[Example 8, 2,2-bis(4-methoxyphenyl)-5-methoxycarbonyl-6-methyl-[2H]-naphtho[1,2-b]pyran]", "values": [{"measurement": "BLEACH RATE T1/2", "setting": "Table 1", "result": 3.62, "unit": "min"}, {"measurement": "Δ OD @ SATURATION", "result": 0.42}, {"measurement": "Δ OD/Min SENSITIVITY", "result": "0.63 Δ OD/Min"}, {"measurement": "LAMBDA MAX of the activated (colored) form in the visible spectrum", "result": 476, "unit": "nm"}]}, {"smiles": "COC(=O)c1c2c(c3cc(OC)ccc3c1C)OC(c1ccc(OC)cc1)(c1ccc(OC)cc1)C=C2", "note": "[Example 9, 2,2-bis(4-methoxyphenyl)-5-methoxycarbonyl-6-methyl-9-methoxy-[2H]-naphtho[1,2-b]pyran]", "values": [{"measurement": "BLEACH RATE T1/2", "setting": "Table 1", "result": 6.27, "unit": "min"}, {"measurement": "Δ OD @ SATURATION", "result": 0.58}, {"measurement": "Δ OD/Min SENSITIVITY", "result": "0.58 Δ OD/Min"}, {"measurement": "LAMBDA MAX of the activated (colored) form in the visible spectrum", "result": 522, "unit": "nm"}]}, {"smiles": "CCC(=O)Oc1c(C(=O)OC)c2c(c3ccccc13)OC(c1ccccc1)(c1ccccc1)C=C2", "note": "[Example 10, 2,2-diphenyl-5-methoxycarbonyl-6-(propionyloxy)-[2H]-naphtho[1,2-b]pyran]", "values": [{"measurement": "BLEACH RATE T1/2", "setting": "Table 1", "result": 4.28, "unit": "min"}, {"measurement": "Δ OD @ SATURATION", "result": 0.19}, {"measurement": "Δ OD/Min SENSITIVITY", "result": "0.39 Δ OD/Min"}, {"measurement": "LAMBDA MAX of the activated (colored) form in the visible spectrum", "result": 470, "unit": "nm"}]}, {"smiles": "COC(=O)c1c2c(c3ccccc3c1OC(C)=O)OC(c1cccc(C(F)(F)F)c1)(c1cccc(C(F)(F)F)c1)C=C2", "note": "[Example 11, 2,2-bis(3-trifluoromethylphenyl)-5-methoxycarbonyl-6-acetoxy-[2H]-naphtho[1,2-b]pyran]", "values": [{"measurement": "BLEACH RATE T1/2", "setting": "Table 1", "result": 3.63, "unit": "min"}, {"measurement": "Δ OD @ SATURATION", "result": 0.08}, {"measurement": "Δ OD/Min SENSITIVITY", "result": "0.15 Δ OD/Min"}, {"measurement": "LAMBDA MAX of the activated (colored) form in the visible spectrum", "result": 455, "unit": "nm"}]}, {"smiles": "CCOC(=O)COc1c(C(=O)OC)c2c(c3ccccc13)OC(c1ccc(OC)cc1)(c1ccc3c(c1)CC(C)O3)C=C2", "note": "(centres unmarked) [Example 12, 2-(4-methoxyphenyl)-2-(2-methyl-2,3-dihydrobenzofur-5-yl)-5-methoxycarbonyl-6-ethoxycarbonylmethoxy-[2H]-naphtho[1,2-b]pyran]", "values": [{"measurement": "BLEACH RATE T1/2", "setting": "Table 1", "result": 4.6, "unit": "min"}, {"measurement": "Δ OD @ SATURATION", "result": 0.53}, {"measurement": "Δ OD/Min SENSITIVITY", "result": "0.83 Δ OD/Min"}, {"measurement": "LAMBDA MAX of the activated (colored) form in the visible spectrum", "result": 517, "unit": "nm"}]}, {"smiles": "COC(=O)c1c2c(c3ccccc3c1OC)OC1(C=C2)C2CC3CC(C2)CC1C3", "note": "(centres unmarked) [Example 13, 2,2'-spiroadamantylene-5-methoxycarbonyl-6-methoxy-[2H]-naphtho[1,2-b]pyran]", "values": [{"measurement": "BLEACH RATE T1/2", "setting": "Table 2 comparison", "result": 1.63, "unit": "min"}]}]}
